One series relates to HLE cells. Put plainly: Cell proliferation assay (CyQUANT NF) in HLE cells. Format: cell-based. The conditions noted are these: HLE cells transfected with siRNA at 20 nM. As for the experimental part: HLE cells, HCT116 cells, and A549 cells were transfected with 25 to 50 nM ASO and 10 to 20 nM siRNA using Lipofectamine 3000 (Invitrogen, Carlsbad, CA, USA) or RNAiMAX (Invitrogen). Transfected cells were used in the experiments 36 to 48 hours after the end of the transfection.
The cell proliferation assays were performed using the CyQUANT NF Cell Proliferation Assay Kits (Thermo Fisher Scientific), in the way recommended by the manufacturer.
HLE cells were transfected with control ASO, ASO-1316 and ASO-3223 at 25 nM and a proliferation assay was performed; the results of the assay are shown in (e) of FIG. 4.
(§1) HLE cells were transfected with control siRNA and PIK3CD siRNA (siRNA against PIK3CD) at 20 nM, and a proliferation assay was performed; the results are shown in (e) of FIG. 5. In addition, an anti-phosphorylated AKT antibody and an anti-AKT antibody as probes were caused to act on cell lysates of HLE cells transfected with control siRNA and PIK3CD siRNA; the results are shown in FIG. 5 (f). HLE cells were transfected with control siRNA and PIK3CD siRNA (siRNA against PIK3CD) at 20 nM and the PIK3CD mRNA amount was measured by real-time PCR; the results are shown in (c) of FIG. 7.

Another series has as its system AKT. Put plainly: Anti-phosphorylated AKT / anti-AKT probing of HLE cell lysates. Format: cell-based. The conditions noted are these: HLE cells transfected with PIK3CD siRNA.
Description: Anti-ARL4C and anti-PIK3CD antibodies were purchased from Abcam (Cambridge, UK) and Santa Cruz Biotechnology (Santa Cruz, CA, USA), respectively. Anti-phosphorylated AKT (S473) antibody, anti-AKT antibody, anti-Ki-67 antibody, and anti-YAP/TAZ were purchased from Cell Signaling Technology (Beverly, MA, USA). PD184161 (MEK1/2 inhibitor) and VivoGlo luciferin were purchased from Sigma-Aldrich (Steinheim, Germany) and Promega (Madison, WI, USA), respectively.
as §1

One substance from patent US12071624B2, “Antisense oligonucleotide targeting ARL4C molecule, and nucleic acid drug using antisense oligonucleotide” (OSAKA UNIVERSITY, priority 2018, dated 2024) can be followed below.

For “PIK3CD siRNA: siRNA against PIK3CD, Table 3, SEQ ID NO: 102 and 103 (chain 1 GCGAATACTCTGCCATTAT; chain 2 GCCAACTAACTCTGCAGAT; two separate siRNAs, only sense strands listed, further chemistry not given here) [reference compound]”, the cell proliferation result in the series with HLE cells is recorded as “suppressed cell proliferation”. Moreover, in the series with AKT, the “AKT activity (pAKT S473)” value is “reduced AKT activity”.
